Assay: recombinant UMI read abundance after kanamycin selection (control-corrected) (log10(CPM+1)); higher = more efficient recombination; extreme values may be limits of the assay; sequences stand for … in AGTGCAGAGAAAATCGGCCAGTTTTCTCTGCCTGCAGTCCGCATGCCGTGGGACCCCTTGGGTTCTAACCTGTTGCCTAGATTTATGCAGCGGACTGCCTTTCTCCCAAAGTGATAAACCGG…AGGTTGGTTTCACT; site = the 11-nt donor
How it was run: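 Pooled Escherichia coli screen of donor and donor-binding-loop pairs for the IS621 bridge recombinase. Each pair sits with a 12-nt UMI on a plasmid carrying a promoterless kanamycin gene. The library was co-electroporated with a target plasmid encoding a fixed target and T7-inducible recombinase, then plated with IPTG (0.07 mM) plus kanamycin, or unselected, each in two replicates. Recombinant UMIs were PCR-amplified across the donor–target junction and sequenced. Counts became CPM, averaged over replicates, scaled by control-derived factors and reported as log10(CPM+1).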
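Also: IS621 bridge recombinase in Escherichia coli cells against a fixed T5 target plasmid.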

| Sequence | recombinant UMI read abundance (log10) |
| --- | --- |
| CCCCAGCCATGGACCGGTTTTCCCGGTAATCCGTATTTGCC (site CCCAAGCCTGG) | 0 |
| CCCCAGCCATGGACCGGTTTTCCCGGTAATCCGTATTTGCC (site CCCCAGCCTGG) | 0 |
| CCCCAGCCATGGACCGGTTTTCCCGGTAATCCGTATTTGCC (site CCCGAGCCTGG) | 0 |
| CCCCAGCCATGGACCGGTTTTCCCGGTAATCCGTATTTGCC (site CCCTAGCCTGG) | 0 |
| CCCCGTCCATGGACCGGTTTTCCCGGTAATCCGTATTTGAA (site CCCCGTCCTTT) | 0.00894 |
| CCCGAGACATGGACCGGTTTTCCCGGTAATCCGTATTTGTT (site CCCGAGACTAA) | 0.475 |
| CCCGAGCCATGGACCGGTTTTCCCGGTAATCCGTATTTGCC (site CCCAAGCCTGG) | 0 |
| CCCGAGCCATGGACCGGTTTTCCCGGTAATCCGTATTTGCC (site CCCCAGCCTGG) | 0 |
| CCCGAGCCATGGACCGGTTTTCCCGGTAATCCGTATTTGCC (site CCCGAGCCTGG) | 0 |
| CCCGAGCCATGGACCGGTTTTCCCGGTAATCCGTATTTGCC (site CCCTAGCCTGG) | 0 |
| CCCGGCCCATGGACCGGTTTTCCCGGTAATCCGTATTTGTT (site CACGGCCCTAA) | 0.00644 |
| CCCGGCCCATGGACCGGTTTTCCCGGTAATCCGTATTTGTT (site CCCGGCCCTAA) | 0.1 |
| CCCGGCCCATGGACCGGTTTTCCCGGTAATCCGTATTTGTT (site CGCGGCCCTAA) | 0.00519 |
| CCCGGCCCATGGACCGGTTTTCCCGGTAATCCGTATTTGTT (site CTCGGCCCTAA) | 0 |
| CCCGGGCCATGGACCGGTTTTCCCGGTAATCCGTATTTGCA (site CCCGGACCTTG) | 0 |
| CCCGGGCCATGGACCGGTTTTCCCGGTAATCCGTATTTGCA (site CCCGGCCCTTG) | 0 |
| CCCGGGCCATGGACCGGTTTTCCCGGTAATCCGTATTTGCA (site CCCGGGCCTTG) | 0 |
| CCCGGGCCATGGACCGGTTTTCCCGGTAATCCGTATTTGCA (site CCCGGTCCTTG) | 0 |
| CCCGGGGCATGGACCGGTTTTCCCGGTAATCCGTATTTGCA (site CCCGGGGCTTG) | 1.23 |
| CCCGGTCCATGGACCGGTTTTCCCGGTAATCCGTATTTGAA (site CCCGGTCCTTA) | 0 |
| CCCGGTCCATGGACCGGTTTTCCCGGTAATCCGTATTTGAA (site CCCGGTCCTTC) | 0.00874 |
| CCCGGTCCATGGACCGGTTTTCCCGGTAATCCGTATTTGAA (site CCCGGTCCTTG) | 0 |
| CCCGGTCCATGGACCGGTTTTCCCGGTAATCCGTATTTGAA (site CCCGGTCCTTT) | 0.00816 |
| CCCGGTCCATGGACCGGTTTTCCCGGTAATCCGTATTTGCC (site CCCGGTCCTAG) | 0 |
| CCCGGTCCATGGACCGGTTTTCCCGGTAATCCGTATTTGCC (site CCCGGTCCTCG) | 0.0293 |

| Sequence | recombinant UMI read abundance (log10) |
| --- | --- |
| CCCGGTCCATGGACCGGTTTTCCCGGTAATCCGTATTTGCC (site CCCGGTCCTGG) | 0 |
| CCCGGTCCATGGACCGGTTTTCCCGGTAATCCGTATTTGCC (site CCCGGTCCTTG) | 0.00573 |
| CCCGTTCCATGGACCGGTTTTCCCGGTAATCCGTATTTGCA (site CCCGATCCTTG) | 0 |
| CCCGTTCCATGGACCGGTTTTCCCGGTAATCCGTATTTGCA (site CCCGCTCCTTG) | 0 |
| CCCGTTCCATGGACCGGTTTTCCCGGTAATCCGTATTTGCA (site CCCGGTCCTTG) | 0 |
| CCCGTTCCATGGACCGGTTTTCCCGGTAATCCGTATTTGCA (site CCCGTTCCTTG) | 0 |
| CCCTAACCATGGACCGGTTTTCCCGGTAATCCGTATTTGAA (site CCCTAACCTTT) | 0.0156 |
| CCCTAACCATGGACCGGTTTTCCCGGTAATCCGTATTTGCC (site CCCTAACCTGG) | 0 |
| CCCTAACCATGGACCGGTTTTCCCGGTAATCCGTATTTGCC (site CCCTACCCTGG) | 0 |
| CCCTAACCATGGACCGGTTTTCCCGGTAATCCGTATTTGCC (site CCCTAGCCTGG) | 0 |
| CCCTAACCATGGACCGGTTTTCCCGGTAATCCGTATTTGCC (site CCCTATCCTGG) | 0 |
| CCCTACACATGGACCGGTTTTCCCGGTAATCCGTATTTGCT (site CACTACACTAG) | 0 |
| CCCTACACATGGACCGGTTTTCCCGGTAATCCGTATTTGCT (site CCCTACACTAG) | 1.12 |
| CCCTACACATGGACCGGTTTTCCCGGTAATCCGTATTTGCT (site CGCTACACTAG) | 0.477 |
| CCCTACACATGGACCGGTTTTCCCGGTAATCCGTATTTGCT (site CTCTACACTAG) | 0.347 |
| CCCTAGACATGGACCGGTTTTCCCGGTAATCCGTATTTGCC (site CCCTAGACTGG) | 1.04 |
| CCCTAGACATGGACCGGTTTTCCCGGTAATCCGTATTTGCC (site CCCTAGCCTGG) | 0 |
| CCCTAGACATGGACCGGTTTTCCCGGTAATCCGTATTTGCC (site CCCTAGGCTGG) | 1.18 |
| CCCTAGACATGGACCGGTTTTCCCGGTAATCCGTATTTGCC (site CCCTAGTCTGG) | 0 |
| CCCTAGACATGGACCGGTTTTCCCGGTAATCCGTATTTGCT (site CCCTAGACTAG) | 0.956 |
| CCCTAGCCATGGACCGGTTTTCCCGGTAATCCGTATTTGAC (site CCCTAGCCTGA) | 0 |
| CCCTAGCCATGGACCGGTTTTCCCGGTAATCCGTATTTGAC (site CCCTAGCCTGC) | 0 |
| CCCTAGCCATGGACCGGTTTTCCCGGTAATCCGTATTTGAC (site CCCTAGCCTGG) | 0 |
| CCCTAGCCATGGACCGGTTTTCCCGGTAATCCGTATTTGAC (site CCCTAGCCTGT) | 0 |
| CCCTAGCCATGGACCGGTTTTCCCGGTAATCCGTATTTGCA (site CCCTAGCCTAG) | 0 |

| Sequence | recombinant UMI read abundance (log10) |
| --- | --- |
| CCCTAGCCATGGACCGGTTTTCCCGGTAATCCGTATTTGCA (site CCCTAGCCTCG) | 0 |
| CCCTAGCCATGGACCGGTTTTCCCGGTAATCCGTATTTGCA (site CCCTAGCCTGG) | 0 |
| CCCTAGCCATGGACCGGTTTTCCCGGTAATCCGTATTTGCA (site CCCTAGCCTTG) | 0 |
| CCCTAGCCATGGACCGGTTTTCCCGGTAATCCGTATTTGCG (site CCCTAGCCTAG) | 0 |
| CCCTAGCCATGGACCGGTTTTCCCGGTAATCCGTATTTGCG (site CCCTAGCCTCG) | 0.0131 |
| CCCTAGCCATGGACCGGTTTTCCCGGTAATCCGTATTTGCG (site CCCTAGCCTGG) | 0 |
| CCCTAGCCATGGACCGGTTTTCCCGGTAATCCGTATTTGCG (site CCCTAGCCTTG) | 0 |
| CCCTAGCCATGGACCGGTTTTCCCGGTAATCCGTATTTGCT (site CCCTAGCCTAG) | 0 |
| CCCTAGCCATGGACCGGTTTTCCCGGTAATCCGTATTTGCT (site CCCTAGCCTCG) | 0 |
| CCCTAGCCATGGACCGGTTTTCCCGGTAATCCGTATTTGCT (site CCCTAGCCTGG) | 0 |
| CCCTAGCCATGGACCGGTTTTCCCGGTAATCCGTATTTGCT (site CCCTAGCCTTG) | 0 |
| CCCTCAACATGGACCGGTTTTCCCGGTAATCCGTATTTGAT (site CCCTCAACTAT) | 0.00694 |
| CCCTCAACATGGACCGGTTTTCCCGGTAATCCGTATTTGGG (site CCCTCAACTCC) | 0.0112 |
| CCCTCCTCATGGACCGGTTTTCCCGGTAATCCGTATTTGAG (site CCCTCCTCTCT) | 0.256 |
| CCCTCCTCATGGACCGGTTTTCCCGGTAATCCGTATTTGGG (site CCCTACTCTCC) | 0.0129 |
| CCCTCCTCATGGACCGGTTTTCCCGGTAATCCGTATTTGGG (site CCCTCCTCTCC) | 0.487 |
| CCCTCCTCATGGACCGGTTTTCCCGGTAATCCGTATTTGGG (site CCCTGCTCTCC) | 0 |
| CCCTCCTCATGGACCGGTTTTCCCGGTAATCCGTATTTGGG (site CCCTTCTCTCC) | 0.00367 |
| CCCTGATCATGGACCGGTTTTCCCGGTAATCCGTATTTGAG (site CCCTGATCTCT) | 0.248 |
| CCCTTATCATGGACCGGTTTTCCCGGTAATCCGTATTTGGG (site CCCTTATCTCC) | 0.162 |
| CCCTTATCATGGACCGGTTTTCCCGGTAATCCGTATTTGGG (site CCCTTCTCTCC) | 0.0199 |
| CCCTTATCATGGACCGGTTTTCCCGGTAATCCGTATTTGGG (site CCCTTGTCTCC) | 0.0199 |
| CCCTTATCATGGACCGGTTTTCCCGGTAATCCGTATTTGGG (site CCCTTTTCTCC) | 0 |
| CCCTTCTCATGGACCGGTTTTCCCGGTAATCCGTATTTGGT (site CCCTTCTCTAC) | 1.32 |
| CCCTTCTCATGGACCGGTTTTCCCGGTAATCCGTATTTGGT (site CCCTTCTCTCC) | 0.182 |

From the supplement of paper PMC11208160
